Patent US20260022143A1, “Cyclic Peptide Inhibitors of IL-23” (JANSSEN PHARMACEUTICA NV, priority 2022, published 2026)
Positions of bridges follow the written chain, without caps; N, C: chain ends. Non-standard residues stand in square brackets, D forms with d. Residues, ends and D or L forms follow the SMILES beside them. Trp(7-Me) = Cc1cccc2c(C[C@H](N)C(=O)O)c[nH]c12; 2Nal = N[C@@H](Cc1ccc2ccccc2c1)C(=O)O; AEF = NCCOc1ccc(C[C@H](N)C(=O)O)cc1; dNMeY = CN[C@H](Cc1ccc(O)cc1)C(=O)O; Pen = CC(C)(S)[C@H](N)C(=O)O; αMeK = C[C@](N)(CCCCN)C(=O)O; dOrn = NCCC[C@@H](N)C(=O)O

assay: Exposed Polar Surface Area (EPSA); assay type: physicochemical; settings: SFC on Chirex 3014 column; sample 1 mM DMSO stock; read-out: EPSA
Description: Exposed Polar Surface Area (EPSA) is an experimental descriptor of molecular polarity obtained from chromatographic retention in supercritical fluid chromatography (SFC).
The stationary phase (Chirex 3014(S)-valine and (R)-1-(alpha-naphthyl) ethylamine) was selected for its balance of lipophilic and polar attributes and its capacity to separate compounds with wide polarity differences. The mobile phase consists of methanol (+Ammonium formate) and CO2. Polar compounds are retained stronger under these conditions and a low-slope gradient of methanol achieves elution based on increasing polarity of the mobile phase. Results are normalized using calibration standards generating a linear relationship between retention times and EPSA values. The unit of EPSA is Å^2.
Along with the measurement of compounds of interest, a series of 8 calibration standards (see Materials) are analyzed generating a linear relationship between retention times and EPSA value. The 8 compounds used as calibration standard have their own EPSA value defined by G. Goetz based on the comparison with TPSA (see G. Goetz, L. Philippe and M. Shapiro, “EPSA: A novel supercritical fluid chromatography technique enabling the design of permeable cyclic peptides,” ACS Med. Chem. Lett., vol. 5, pp. 1167-1172, 2014 for more information). The slope from the linear relationship between EPSA values of these eight compounds and their retention times is used to determine the EPSA value of each compound of interest that's measured under the same condition using the equation as below: […]
The mixture of calibrations standard is reinjected every 20 compounds to validate the stability of the retention time.
The mobile phase modifier consists of ammonium formate LC_MS grade (>99%) (CAS number 540-69-2) diluted to 20 mM in HPLC grade Methanol (MeOH, CAS number 67-56-1) and liquid C02 SFC grade (CAS number 124-38-9).
Antipyrine (CAS number: 60-80-0) Chlorpromazine hydrochloride (CAS number: 69-09-0), desipramine hydrochloride (CAS number: […]), pindolol (CAS Number: 13523-86-9), diclofenac (CAS number: 15307-79-6)), m-nitro benzoic acid (CAS number: 121-92-6), bumetanide (CAS number: 28395-03-1), furosemide (CAS number: 54-31-9) were purchased from Sigma Aldrich (Steihneim, Germany).
All analyses were performed on a ultra performance convergence chromatography (UPC™) apparatus (Waters, Milford, MA, USA) equipped with a sample manager, a binary solvent delivery pump (BSM), a column manager, a convergence manager (automated back pressure regulator), a photo diode array detector (DAD) with a high pressure flow cell, and a mass detector simple quadrupole QDa. After the UV detector, the effluent of the SFC was mixed with an eluent consist of mixture MeOH/water (+0.3% Ammonia) 95/5 delivered by a make up pump with a flow rate of 0.4 mL/min and then split to the QDa using a splitter. The instrument was controlled, and data were processed with Masslynx 4.1.
The Analyses were performed using a 4.6×50 mm Chirex 3014(S)-valine and (R)-1-(alpha- naphthyl) ethylamine column (Phenomenex, Le Pecq, France) with 5 um particle and 100A pore size. The flow rate was 4 mL/min with the outlet pressure set to 14 MPa. The injection volume was 2 μL. the mobile phase composition was varied from 5% to 60% modifier at 20%/ min in a linear gradient, holding at 60% for 1.45 min and reverting to the original 5% until the end of the run. Data are acquired during 5 min. An equilibration time of 1 min is applied between 2 injections resulting in an injection every 6 min. each sample is analyzed in duplicate, resulting in a sample to sample turnaround time of 12 min.
The column temperature was set to 35° C. The mass detector was used in full scan from 100 to 800 for small molecules and from 500 to 1200 for peptides.
Each sample is delivered by compound logistics from DMSO stock solution without dilution. The concentration is 1 mM and the volume is 60 μL.

Row | EPSA [A^2] | SMILES
1 | 170 | CC(=O)NCCCC[C@@H]1NC(=O)[C@H](Cc2c[nH]c3c(C)cccc23)NC(=O)[C@H]([C@@H](C)O)NC(=O)[C@H](CC(N)=O)NC(=O)[C@@H](NC(C)=O)C(C)(C)SSC(C)(C)[C@@H](C(=O)N[C@@H](Cc2ccc(OCCN)cc2)C(=O)N[C@@H](Cc2ccc3ccccc3c2)C(=O)N[C@@](C)(CCCCN)C(=O)N[C@@H](CCCCNC(C)=O)C(=O)N[C@@H](CC(N)=O)C(=O)N[C@@H](Cc2ccccc2)C(=O)N(C)[C@H](Cc2ccc(O)cc2)C(N)=O)NC1=O [compound 7, MeCO-Pen(3)-N-T-7MeW-K(Ac)-Pen(3)-AEF-2Nal-aMeK-K(Ac)-N-F-NMeDTyr-CONH2] (Ac-[Pen]NT[Trp(7-Me)]K(Ac)[Pen][AEF][2Nal][αMeK]K(Ac)NF[dNMeY]-NH2; disulfide 1-6)
2 | 169 | CC(=O)NCCCC[C@@H]1NC(=O)[C@H](Cc2c[nH]c3c(C)cccc23)NC(=O)[C@H]([C@@H](C)O)NC(=O)[C@H](CC(N)=O)NC(=O)[C@@H](NC(C)=O)C(C)(C)SSC(C)(C)[C@@H](C(=O)N[C@@H](Cc2ccc(OCCN)cc2)C(=O)N[C@@H](Cc2ccc3ccccc3c2)C(=O)N[C@@](C)(CCCCN)C(=O)N[C@@H](CCCCNC(C)=O)C(=O)N[C@@H](CC(N)=O)C(=O)N[C@@H](Cc2c[nH]cn2)C(=O)N(C)[C@H](Cc2ccc(O)cc2)C(N)=O)NC1=O [compound 8, MeCO-Pen(3)-N-T-7MeW-K(Ac)-Pen(3)-AEF-2Nal-aMeK-K(Ac)-N-H-NMeDTyr-CONH2] (Ac-[Pen]NT[Trp(7-Me)]K(Ac)[Pen][AEF][2Nal][αMeK]K(Ac)NH[dNMeY]-NH2; disulfide 1-6 (inferred))
3 | 174 | CC(=O)NCCCC[C@@H]1NC(=O)[C@H](Cc2c[nH]c3c(C)cccc23)NC(=O)[C@H]([C@@H](C)O)NC(=O)[C@H](CC(N)=O)NC(=O)[C@@H](NC(C)=O)C(C)(C)SSC(C)(C)[C@@H](C(=O)N[C@@H](Cc2ccc(OCCN)cc2)C(=O)N[C@@H](Cc2ccc3ccccc3c2)C(=O)N[C@@](C)(CCCCN)C(=O)N[C@@H](CCCCNC(C)=O)C(=O)N[C@@H](CC(N)=O)C(=O)N[C@@H](CC(N)=O)C(=O)N(C)[C@H](Cc2ccc(O)cc2)C(N)=O)NC1=O [compound 13, MeCO-Pen(3)-N-T-7MeW-K(Ac)-Pen(3)-AEF-2Nal-aMeK-K(Ac)-N-N-NMeDTyr-CONH2] (Ac-[Pen]NT[Trp(7-Me)]K(Ac)[Pen][AEF][2Nal][αMeK]K(Ac)NN[dNMeY]-NH2; disulfide 1-6)
4 | 219 | CC(=O)NCCCC[C@@H]1NC(=O)[C@H](Cc2c[nH]c3c(C)cccc23)NC(=O)[C@H]([C@@H](C)O)NC(=O)[C@H](CC(N)=O)NC(=O)[C@@H](NC(C)=O)C(C)(C)SSC(C)(C)[C@@H](C(=O)N[C@@H](Cc2ccc(OCCN)cc2)C(=O)N[C@@H](Cc2ccc3ccccc3c2)C(=O)N[C@@](C)(CCCCN)C(=O)N[C@@H](CCCCNC(C)=O)C(=O)N[C@@H](CC(N)=O)C(=O)N[C@H](CCCN)C(=O)N(C)[C@H](Cc2ccc(O)cc2)C(N)=O)NC1=O [compound 18, MeCO-Pen(3)-N-T-7MeW-K(Ac)-Pen(3)-AEF-2Nal-aMeK-K(Ac)-N-orn-NMeDTyr-CONH2] (Ac-[Pen]NT[Trp(7-Me)]K(Ac)[Pen][AEF][2Nal][αMeK]K(Ac)N[dOrn][dNMeY]-NH2; disulfide 1-6)
5 | 171 | CC(=O)NCCCC[C@@H]1NC(=O)[C@H](Cc2c[nH]c3c(C)cccc23)NC(=O)[C@H]([C@@H](C)O)NC(=O)[C@H](CC(N)=O)NC(=O)[C@@H](NC(C)=O)C(C)(C)SSC(C)(C)[C@@H](C(=O)N[C@@H](Cc2ccc(OCCN)cc2)C(=O)N[C@@H](Cc2ccc3ccccc3c2)C(=O)N[C@@](C)(CCCCN)C(=O)N[C@@H](CCCCNC(C)=O)C(=O)N[C@@H](CC(N)=O)C(=O)N[C@H](CO)C(=O)N(C)[C@H](Cc2ccc(O)cc2)C(N)=O)NC1=O [compound 19, MeCO-Pen(3)-N-T-7MeW-K(Ac)-Pen(3)-AEF-2Nal-aMeK-K(Ac)-N-s-NMeDTyr-CONH2] (Ac-[Pen]NT[Trp(7-Me)]K(Ac)[Pen][AEF][2Nal][αMeK]K(Ac)N[dS][dNMeY]-NH2; disulfide 1-6)

Continued, compound first:

Row | SMILES | EPSA [A^2]
6 | CC(=O)NCCCC[C@@H]1NC(=O)[C@H](Cc2c[nH]c3c(C)cccc23)NC(=O)[C@H]([C@@H](C)O)NC(=O)[C@H](CC(N)=O)NC(=O)[C@@H](NC(C)=O)C(C)(C)SSC(C)(C)[C@@H](C(=O)N[C@@H](Cc2ccc(OCCN)cc2)C(=O)N[C@@H](Cc2ccc3ccccc3c2)C(=O)N[C@@](C)(CCCCN)C(=O)N[C@H](CCCCNC(C)=O)C(=O)N[C@@H](CC(N)=O)C(=O)N[C@H](CCCCN)C(=O)N(C)[C@H](Cc2ccc(O)cc2)C(N)=O)NC1=O [compound 5, MeCO-Pen(3)-N-T-7MeW-K(Ac)-Pen(3)-AEF-2Nal-aMeK-k(Ac)-N-dK-NMeDTyr-CONH2] (Ac-[Pen]NT[Trp(7-Me)]K(Ac)[Pen][AEF][2Nal][αMeK][dK](Ac)N[dK][dNMeY]-NH2; disulfide 1-6) | 168
7 | CC(=O)NCCCC[C@@H]1NC(=O)[C@H](Cc2c[nH]c3c(C)cccc23)NC(=O)[C@H]([C@@H](C)O)NC(=O)[C@H](CC(N)=O)NC(=O)[C@@H](NC(=O)[C@@H](CCCNC(=N)N)NC(C)=O)C(C)(C)SSC(C)(C)[C@@H](C(=O)N[C@@H](Cc2ccc(OCCN)cc2)C(=O)N[C@@H](Cc2ccc3ccccc3c2)C(=O)N[C@@](C)(CCCCN)C(=O)N[C@@H](CCC(=O)O)C(=O)N[C@@H](CC(N)=O)C(=O)N[C@@H](Cc2c[nH]cn2)C(=O)N(C)[C@H](Cc2ccc(O)cc2)C(N)=O)NC1=O [compound 9, MeCO-r-Pen(3)-N-T-7MeW-K(Ac)-Pen(3)-AEF-2Nal-aMeK-E-N-H-NMeDTyr-CONH2] (Ac-[dR][Pen]NT[Trp(7-Me)]K(Ac)[Pen][AEF][2Nal][αMeK]ENH[dNMeY]-NH2; disulfide 2-7) | 187
8 | CC(=O)NCCCC[C@@H]1NC(=O)[C@H](Cc2c[nH]c3c(C)cccc23)NC(=O)[C@H]([C@@H](C)O)NC(=O)[C@H](CC(N)=O)NC(=O)[C@@H](NC(C)=O)C(C)(C)SSC(C)(C)[C@@H](C(=O)N[C@@H](Cc2ccc(OCCN)cc2)C(=O)N[C@@H](Cc2ccc3ccccc3c2)C(=O)N[C@@](C)(CCCCN)C(=O)N[C@@H](CCCCNC(C)=O)C(=O)N[C@@H](CC(N)=O)C(=O)N[C@@H](C(=O)N(C)[C@H](Cc2ccc(O)cc2)C(N)=O)C(C)C)NC1=O [compound 14, MeCO-Pen(3)-N-T-7MeW-K(Ac)-Pen(3)-AEF-2Nal-aMeK-K(Ac)-N-v-NMeDTyr-CONH2] (Ac-[Pen]NT[Trp(7-Me)]K(Ac)[Pen][AEF][2Nal][αMeK]K(Ac)N[dV][dNMeY]-NH2; disulfide 1-6) | 166
9 | CC(=O)NCCCC[C@@H]1NC(=O)[C@H](Cc2c[nH]c3c(C)cccc23)NC(=O)[C@H]([C@@H](C)O)NC(=O)[C@H](CC(N)=O)NC(=O)[C@@H](NC(C)=O)C(C)(C)SSC(C)(C)[C@@H](C(=O)N[C@@H](Cc2ccc(OCCN)cc2)C(=O)N[C@@H](Cc2ccc3ccccc3c2)C(=O)N[C@@](C)(CCCCN)C(=O)N[C@@H](CCCCNC(C)=O)C(=O)N[C@@H](CC(N)=O)C(=O)N[C@@H](C(=O)N(C)[C@H](Cc2ccc(O)cc2)C(N)=O)[C@H](C)O)NC1=O [compound 15, MeCO-Pen(3)-N-T-7MeW-K(Ac)-Pen(3)-AEF-2Nal-aMeK-K(Ac)-N-t-NMeDTyr-CONH2] (Ac-[Pen]NT[Trp(7-Me)]K(Ac)[Pen][AEF][2Nal][αMeK]K(Ac)N[dT][dNMeY]-NH2; disulfide 1-6 (inferred)) | 168
